Two compounds from US9481646B2, “Low calcemic, highly antiproliferative, analogs of calcitriol” (The Johns Hopkins University, priority 2007, dated 2016) can be followed below.

For one data set, the system named is murine keratinocytes. The data set is described as follows: antiproliferative activity in murine keratinocytes (standard in vitro protocol). It counts as cell-based. The following applies: Mus musculus, Keratinocyte, read-out: Antiproliferative IC50.
Data set [1] is described as follows: in vivo calciuric activity, calcium levels in rat urine. The conditions noted are these: relative activity (A = 1).
The next data set addresses T1, human recombinant VDR (Homo sapiens, UniProt P11473).
T1 construct: purchased Biomol SE-140
T1 sequence (P11473 1-427): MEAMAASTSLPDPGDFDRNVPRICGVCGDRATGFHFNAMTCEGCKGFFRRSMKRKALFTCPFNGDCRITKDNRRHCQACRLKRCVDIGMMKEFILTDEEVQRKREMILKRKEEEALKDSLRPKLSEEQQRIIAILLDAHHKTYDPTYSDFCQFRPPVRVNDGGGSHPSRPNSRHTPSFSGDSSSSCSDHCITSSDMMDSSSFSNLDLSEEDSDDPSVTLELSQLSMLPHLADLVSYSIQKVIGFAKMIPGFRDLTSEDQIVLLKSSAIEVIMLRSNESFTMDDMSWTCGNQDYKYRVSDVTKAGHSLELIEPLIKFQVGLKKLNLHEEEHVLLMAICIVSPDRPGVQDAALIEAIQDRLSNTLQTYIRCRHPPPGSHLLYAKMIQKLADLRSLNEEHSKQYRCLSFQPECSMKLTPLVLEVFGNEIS
The data set is described as follows: competitive binding to the human VDR.

Bounds are passed on as bounds.

Consider `C=C1/C(=C\C=C2/CCC[C@]3(C)[C@@H]([C@H](C)CCCC(C)(C)O)CC[C@@H]23)C[C@@H](O)C[C@@H]1O` [A, 1α,25-dihydroxyvitamin D3, reference compound], for which, in the data set with murine keratinocytes, the IC50 is 80 nM. Besides, the “Calciuria Activity Compared to 1” value in data set [1] worked out at 1.
Consider `C=C1/C(=C\C=C2/CCC[C@]3(C)[C@@H]([C@H](C)COCC4=CCCCC4(C)C)CC[C@@H]23)C[C@@H](O)C[C@@H]1O` [Analog 1d], for which the IC50 at human recombinant VDR came to 300 nM; in the data set on murine keratinocytes, 50 nM. In addition, the “Calciuria Activity Compared to 1” value in data set [1] is listed as under 0.02.

As a reminder, the IC50 is the midpoint of a concentration-inhibition curve.
